Source: patent publication US20230340011A1 (Asteroid Therapeutics, priority 2022, published 2023)
Where two headings read alike, the source gives them in different places.

Key:
SREBP-2 = SREBP-2 (Homo sapiens (Human), UniProt Q12772); assay: In vitro assay SREBP-2: PathHunter U2OS SREBP-2 Nuclear Translocation Cell Line, U18666A-stimulated; format: cell-based
LXRβ = LXRβ (Homo sapiens (Human), UniProt P55055); assay: In vitro assay LXRβ: PathHunter NHR CHO cells, LXRβ / Steroid Receptor Co-activator Peptide enzyme fragment complementation; format: cell-based; details: PathHunter NHR CHO cells, full-length human LXRβ and SRCP, chemiluminescent signal; read-out: LXRβ PPI
LXRβ, sequence (P55055 whole entry, the tested form may be a part): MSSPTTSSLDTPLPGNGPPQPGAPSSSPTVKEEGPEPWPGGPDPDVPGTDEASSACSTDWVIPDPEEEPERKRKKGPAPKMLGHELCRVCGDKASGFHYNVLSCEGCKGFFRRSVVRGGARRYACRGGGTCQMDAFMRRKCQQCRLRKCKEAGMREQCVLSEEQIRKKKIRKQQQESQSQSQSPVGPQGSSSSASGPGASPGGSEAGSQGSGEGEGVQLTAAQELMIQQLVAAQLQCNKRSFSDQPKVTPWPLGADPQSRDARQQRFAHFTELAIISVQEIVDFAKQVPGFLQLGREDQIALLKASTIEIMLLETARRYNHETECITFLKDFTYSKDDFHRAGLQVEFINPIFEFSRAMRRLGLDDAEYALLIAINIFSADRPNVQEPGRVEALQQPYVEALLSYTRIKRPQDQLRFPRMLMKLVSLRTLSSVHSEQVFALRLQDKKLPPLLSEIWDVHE
How it was run: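 Enzyme fragment complementation read-out: CHO cells stably expressing ProLink-tagged full-length human LXRβ plus nuclear enzyme acceptor–SRCP fusion, seeded and held overnight at 37° C. Medium with charcoal-dextran filtered serum; final vehicle 1%. Chemiluminescence measured after signal generation.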

[1] = PathHunter U2OS SREBP-2 nuclear translocation cells, U18666A 10 μM, overnight (16 hours)

## COC(=O)N1CCC2(CCN(C(=O)CC[C@@H](C)[C@H]3CC[C@H]4[C@@H]5CC=C6C[C@@H](O)CC[C@]6(C)[C@H]5CC[C@]34C)C2)C1 (stereo partly drawn) [Example 554, Methyl 7-((R)-4-((3S,8S,9S,10R,13R,14S,17R)-3-hydroxy-10,13-dimethyl-2,3,4,7,8,9,10,11,12,13,14,15,16,17-tetradecahydro-1H-cyclopenta[a]phenanthren-17-yl)pentanoyl)-2,7-diazaspiro[4.4]nonane-2-carboxylate]
SREBP-2; [1]
  IC50: < 0.25 µM
LXRβ
  EC50: > 10 µM

## COC1CCN(C(=O)CC[C@@H](C)[C@H]2CC[C@H]3[C@@H]4CC=C5C[C@@H](O)CC[C@]5(C)[C@H]4CC[C@]23C)CC1 [Example 94, (R)-4-((3S,8S,9S,10R,13R,14S,17R)-3-hydroxy-10,13-dimethyl-2,3,4,7,8,9,10,11,12,13,14,15,16,17-tetradecahydro-1H-cyclopenta[a]phenanthren-17-yl)-1-(4-methoxypiperidin-1-yl)pentan-1-one]
SREBP-2; [1]
  IC50: < 0.25 µM
LXRβ
  EC50: 0.25 to 1 µM

## C=CCN1C[C@H]2CCN(C(=O)CC[C@@H](C)[C@H]3CC[C@H]4[C@@H]5CC=C6C[C@@H](O)CC[C@]6(C)[C@H]5CC[C@]34C)[C@H]2C1 [Example 140, (R)-1-((3aR,6aR)-5-allylhexahydropyrrolo[3,4-b]pyrrol-1(2H)-yl)-4-((3S,8S,9S,10R,13R,14S,17R)-3-hydroxy-10,13-dimethyl-2,3,4,7,8,9,10,11,12,13,14,15,16,17-tetradecahydro-1H-cyclopenta[a]phenanthren-17-yl)pentan-1-one]
SREBP-2; [1]
  IC50: 0.25 to 1 µM
LXRβ
  EC50: > 10 µM

## C[C@H](CCC(=O)N1CCN(S(=O)(=O)N(C)C)CC1)[C@H]1CC[C@H]2[C@@H]3CC=C4C[C@@H](O)CC[C@]4(C)[C@H]3CC[C@]12C [Example 358, 4-((R)-4-((3S,8S,9S,10R,13R,14S,17R)-3-hydroxy-10,13-dimethyl-2,3,4,7,8,9,10,11,12,13,14,15,16,17-tetradecahydro-1H-cyclopenta[a]phenanthren-17-yl)pentanoyl)-N,N-dimethylpiperazine-1-sulfonamide]
SREBP-2; [1]
  IC50: < 0.25 µM
LXRβ
  EC50: > 10 µM

## CON(C)C(=O)C(C)C[C@@H](C)[C@H]1CC[C@H]2[C@@H]3CC=C4C[C@@H](O)CC[C@]4(C)[C@H]3CC[C@]12C (stereo partly drawn) [Example 142, (4R)-4-((3S,8S,9S,10R,13R,14S,17R)-3-hydroxy-10,13-dimethyl-2,3,4,7,8,9,10,11,12,13,14,15,16,17-tetradecahydro-1H-cyclopenta[a]phenanthren-17-yl) -N-methoxy-N,2-dimethylpentanamide]
SREBP-2
  IC50: 1 to 10 µM
LXRβ
  EC50: 1 to 10 µM

## C=CCN1C[C@@H]2CCN(C(=O)CC[C@@H](C)[C@H]3CC[C@H]4[C@@H]5CC=C6C[C@@H](O)CC[C@]6(C)[C@H]5CC[C@]34C)[C@@H]2C1 [Example 139, (R)-1-((3aS,6aS)-5-allylhexahydropyrrolo[3,4-b]pyrrol-1(2H)-yl)-4-((3S,8S,9S,10R,13R,14S,17R)-3-hydroxy-10,13-dimethyl-2,3,4,7,8,9,10,11,12,13,14,15,16,17-tetradecahydro-1H-cyclopenta[a]phenanthren-17-yl)pentan-1-one]
SREBP-2; [1]
  IC50: 0.25 to 1 µM
LXRβ
  EC50: > 10 µM

## CC[C@@]1(OC)CCCN(C(=O)CC[C@@H](C)[C@H]2CC[C@H]3[C@@H]4CC=C5C[C@@H](O)CC[C@]5(C)[C@H]4CC[C@]23C)C1 [Example 201, (R)-1-((R)-3-ethyl-3-methoxypiperidin-1-yl)-4-((3S,8S,9S,10R,13R,14S,17R)-3-hydroxy-10,13-dimethyl-2,3,4,7,8,9,10,11,12,13,14,15,16,17-tetradecahydro-1H-cyclopenta[a]phenanthren-17-yl)pentan-1-one]
SREBP-2; [1]
  IC50: < 0.25 µM
LXRβ
  EC50: 1 to 10 µM

## C[C@H](CCC(=O)N1CCC[C@@H]1C)[C@H]1CC[C@H]2[C@@H]3CC=C4C[C@@H](O)CC[C@]4(C)[C@H]3CC[C@]12C [Example 112, (R)-4-((3S,8S,9S,10R,13R,14S,17R)-3-hydroxy-10,13-dimethyl-2,3,4,7,8,9,10,11,12,13,14,15,16,17-tetradecahydro-1H-cyclopenta[a]phenanthren-17-yl)-1-((S)-2-methylpyrrolidin-1-yl)pentan-1-one]
SREBP-2; [1]
  IC50: < 0.25 µM
LXRβ
  EC50: 0.25 to 1 µM

## C[C@H](CCC(=O)N1CCN(c2cccnn2)CC1)[C@H]1CC[C@H]2[C@@H]3CC=C4C[C@@H](O)CC[C@]4(C)[C@H]3CC[C@]12C [Example 303, (4R)-4-[(1R,3aS,3bS,7S,9aR,9bS,11aR)-7-hydroxy-9a,11a-dimethyl-1H,2H,3H,3aH,3bH,4H,6H,7H,8H,9H,9aH,9bH,10H,11H,11aH-cyclopenta[a]phenanthren-1-yl]-1-[4-(pyridazin-3-yl)piperazin-1-yl]pentan-1-one]
SREBP-2; [1]
  IC50: < 0.25 µM
LXRβ
  EC50: > 10 µM

## COc1ncccc1N1CCN(C(=O)CC[C@@H](C)[C@H]2CC[C@H]3[C@@H]4CC=C5C[C@@H](O)CC[C@]5(C)[C@H]4CC[C@]23C)CC1 [Example 612, (R)-4-((3S,8S,9S,10R,13R,14S,17R)-3-hydroxy-10,13-dimethyl-2,3,4,7,8,9,10,11,12,13,14,15,16,17-tetradecahydro-1H-cyclopenta[a]phenanthren-17-yl)-1-(4-(2-methoxypyridin-3-yl)piperazin-1-yl)pentan-1-one]
SREBP-2; [1]
  IC50: < 0.25 µM
LXRβ
  EC50: > 10 µM

## C[C@H](CCC(=O)N1CCC(N(C)C(=O)c2ccncc2)CC1)[C@H]1CC[C@H]2[C@@H]3CC=C4C[C@@H](O)CC[C@]4(C)[C@H]3CC[C@]12C [Example 416, N-(1-((R)-4-((3S,8S,9S,10R,13R,14S,17R)-3-hydroxy-10,13-dimethyl-2,3,4,7,8,9,10,11,12,13,14,15,16,17-tetradecahydro-1H-cyclopenta[a]phenanthren-17-yl)pentanoyl)piperidin-4-yl)-N-methylisonicotinamide]
SREBP-2; [1]
  IC50: < 0.25 µM
LXRβ
  EC50: > 10 µM

## COC(=O)N1CCC(N(C)C(=O)CC[C@@H](C)[C@H]2CC[C@H]3[C@@H]4CC=C5C[C@@H](O)CC[C@]5(C)[C@H]4CC[C@]23C)CC1 [Example 643, Methyl 4-[(4R)-4-[(1R,3aS,3bS,7S,9aR,9bS,11aR)-7-hydroxy-9a,11a-dimethyl-1H,2H,3H,3aH,3bH,4H,6H,7H,8H,9H,9aH,9bH,10H,11H,11aH-cyclopenta[a]phenanthren-1-yl]-N-methylpentanamido]piperidine-1-carboxylate]
SREBP-2; [1]
  IC50: < 0.25 µM
LXRβ
  EC50: > 10 µM

## Cc1nccc(CC[C@@H](C)[C@H]2CC[C@H]3[C@@H]4CC=C5C[C@@H](O)CC[C@]5(C)[C@H]4CC[C@]23C)n1 [Example 190, (3S,8S,9S,10R,13R,14S,17R)-10,13-dimethyl-17-((R)-4-(2-methylpyrimidin-4-yl)butan-2-yl)-2,3,4,7,8,9,10,11,12,13,14,15,16,17-tetradecahydro-1H-cyclopenta[a]phenanthren-3-ol]
SREBP-2; [1]
  IC50: 0.25 to 1 µM
LXRβ
  EC50: 1 to 10 µM

## C[C@H](CCC(=O)N1CCN(C(=O)N(C)C)[C@@H](C)C1)[C@H]1CC[C@H]2[C@@H]3CC=C4C[C@@H](O)CC[C@]4(C)[C@H]3CC[C@]12C [Example 573, (2S)-4-[(4R)-4-[(1R,3aS,3bS,7S,9aR,9bS,11aR)-7-hydroxy-9a,11a-dimethyl-1H,2H,3H,3aH,3bH,4H,6H,7H,8H,9H,9aH,9bH,10H,11H,11aH-cyclopenta[a]phenanthren-1-yl]pentanoyl]-N,N,2-trimethylpiperazine-1-carboxamide]
SREBP-2; [1]
  IC50: < 0.25 µM
LXRβ
  EC50: > 10 µM

## CON(C(=O)CC[C@@H](C)[C@H]1CC[C@H]2[C@@H]3CC=C4C[C@@H](O)CC[C@]4(C)[C@H]3CC[C@]12C)[C@@H](C)CO [Example 72, (R)-4-((3S,8S,9S,10R,13R,14S,17R)-3-hydroxy-10,13-dimethyl-2,3,4,7,8,9,10,11,12,13,14,15,16,17-tetradecahydro-1H-cyclopenta[a]phenanthren-17-yl)-N—((S)-1-hydroxypropan-2-yl)-N-methoxypentanamide]
SREBP-2; [1]
  IC50: 0.25 to 1 µM
LXRβ
  EC50: 0.25 to 1 µM

## C[C@H](CCC(=O)N1C[C@@H]2C[C@]2(c2ccccc2)C1)[C@H]1CC[C@H]2[C@@H]3CC=C4C[C@@H](O)CC[C@]4(C)[C@H]3CC[C@]12C [Example 78, (4R)-4-((3S,8S,9S,10R,13R,14S,17R)-3-hydroxy-10,13-dimethyl-2,3,4,7,8,9,10,11,12,13,14,15,16,17-tetradecahydro-1H-cyclopenta[a]phenanthren-17-yl)-1-(1-phenyl-3-azabicyclo[3.1.0]hexan-3-yl)pentan-1-one]
SREBP-2; [1]
  IC50: < 0.25 µM
LXRβ
  EC50: 1 to 10 µM

## C[C@H](Oc1cccnc1)[C@H]1CC[C@H]2[C@@H]3CC=C4C[C@@H](O)CC[C@]4(C)[C@H]3CC[C@]12C [Example 380, (3S,8S,9S,10R,13S,14S,17S)-10,13-dimethyl-17-((S)-1-(pyridin-3-yloxy)ethyl)-2,3,4,7,8,9,10,11,12,13,14,15,16,17-tetradecahydro-1H-cyclopenta[a]phenanthren-3-ol]
SREBP-2; [1]
  IC50: < 0.25 µM
LXRβ
  EC50: > 10 µM

## CON(CCN)C(=O)CC[C@@H](C)[C@H]1CC[C@H]2[C@@H]3CC=C4C[C@@H](O)CC[C@]4(C)[C@H]3CC[C@]12C [Example 64, (R)—N-(2-aminoethyl)-4-((3S,8S,9S,10R,13R,14S,17R)-3-hydroxy-10,13-dimethyl-2,3,4,7,8,9,10,11,12,13,14,15,16,17-tetradecahydro-1H-cyclopenta[a]phenanthren-17-yl)-N-methoxypentanamide]
SREBP-2; [1]
  IC50: 0.25 to 1 µM
LXRβ
  EC50: < 0.25 µM
